What was measured:
NP R152A = NP R152A (Influenza A virus, UniProt P15682, R152A); format: binding, type-A Influenza virus
[1] = biological target: nucleoprotein of SEQ ID NO: 2 (Influenza A virus, UniProt P15682, A237T/A472T/G34D/M105R/P283S)
NP WT = NP WT (Influenza A virus, UniProt P15682, A237T/A472T/G34D/M105R/P283S); format: binding, type-A Influenza virus (H1N1 A/WSN/1933)
NP R361A [2] = biological target: T1, NP R361A (Influenza A virus, UniProt P15682, R361A)
NP = NP (Influenza A virus, UniProt P15682, A237T/A472T/G34D/M105R/P283S)
NP R416A mutant = NP R416A mutant (Influenza A virus, UniProt P15682, R416A)
NP R361A [3] = biological target: T1, NP R361A; remark: listed apart in the source
NP Y148A = NP Y148A (Influenza A virus, UniProt P15682, Y148A)

Q: With `COc1ccc2cc(C(C)C(=O)O)ccc2c1` (centres unmarked) [Naproxen] as the compound, how does the “effect of R152A mutation on affinity” value (NP R152A) read?
A: no effect

Q: And the “beacon fluorescence in the presence of compound” value [1]?
A: fluorescence decreases

Q: And the “competition with the association of RNA to NP (signal of NP-RNA complex)” value (NP WT)?
A: signal decrease

Q: What about the “direct attachment to surface-bound protein” value (NP R361A [2]) of the same compound?
A: but not to R361A

Q: What about the “direct attachment to surface-bound protein” value (NP) of the same compound?
A: direct attachment

Q: And the “attachment to R416A mutant” value (NP R416A mutant)?
A: does not fix

Q: And the “competition with the RNA / attachment” value (NP R361A [3])?
A: does not compete with the RNA any longer

Q: And the “competition with the RNA” value (NP Y148A)?
A: does not compete with the RNA any longer

Q: `COc1ccc2cc(-c3c(C(=O)O)cccc3C(=O)O)ccc2c1` [Naproxen c0] was tested. Which “effect of R152A mutation on affinity” value (NP R152A) did it give?
A: reduces the affinity

Q: For `COc1ccc2cc(C(CC(=O)O)CC(=O)O)ccc2c1` [Naproxen A], which “effect of R152A mutation on affinity” value (NP R152A) is on record?
A: reduces the affinity

Q: And the “competition with the association of RNA to NP (signal of NP-RNA complex)” value (NP WT)?
A: biphasic effect
